Test results as given in PubChem BioAssay (NCI).
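How tested: cells in 96-well plates exposed to compound for 48 hours at five concentrations. GI50 = concentration required for 50% inhibition of growth. TGI denotes the concentration required for complete inhibition of growth.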

Legend:
Assay in all cases: NCI anticancer screen, dose series, 48 h
786-0 renal = test system: 786-0 renal
A498 renal = test system: A498 renal
A549 NSCLC = test system: A549 NSCLC
ACHN renal = test system: ACHN renal
BT-549 breast = test system: BT-549 breast
CAKI-1 renal = test system: CAKI-1 renal
CCRF-CEM leukemia = test system: CCRF-CEM leukemia
COLO 205 colon = test system: COLO 205 colon
DU-145 prostate = test system: DU-145 prostate
EKVX NSCLC = test system: EKVX NSCLC
HCC-2998 colon = test system: HCC-2998 colon
HCT-116 colon = test system: HCT-116 colon
HCT-15 colon = test system: HCT-15 colon
HL-60(TB) leukemia = test system: HL-60(TB) leukemia
HOP-62 NSCLC = test system: HOP-62 NSCLC
HOP-92 NSCLC = test system: HOP-92 NSCLC
HS 578T breast = test system: HS 578T breast
HT29 colon = test system: HT29 colon
IGROV1 ovarian = test system: IGROV1 ovarian
K-562 leukemia = test system: K-562 leukemia
KM12 colon = test system: KM12 colon
LOX IMVI melanoma = test system: LOX IMVI melanoma
M14 melanoma = test system: M14 melanoma
MALME-3M melanoma = test system: MALME-3M melanoma
MCF7 breast = test system: MCF7 breast
MDA-MB-231 breast = test system: MDA-MB-231 breast
MDA-MB-435 = test system: MDA-MB-435
MOLT-4 leukemia = test system: MOLT-4 leukemia
NCI-H226 lung = test system: NCI-H226 lung
NCI-H23 lung = test system: NCI-H23 lung
NCI-H460 lung = test system: NCI-H460 lung
NCI-H522 lung = test system: NCI-H522 lung
NCI/ADR-RES ovarian = test system: NCI/ADR-RES ovarian
OVCAR-3 ovarian = test system: OVCAR-3 ovarian
OVCAR-4 ovarian = test system: OVCAR-4 ovarian
OVCAR-5 ovarian = test system: OVCAR-5 ovarian
OVCAR-8 ovarian = test system: OVCAR-8 ovarian
PC-3 prostate = test system: PC-3 prostate
RPMI-8226 leukemia = test system: RPMI-8226 leukemia
RXF 393 renal = test system: RXF 393 renal
SF-268 CNS = test system: SF-268 CNS
SF-295 CNS = test system: SF-295 CNS
SF-539 CNS = test system: SF-539 CNS
SK-MEL-2 melanoma = test system: SK-MEL-2 melanoma
SK-MEL-28 melanoma = test system: SK-MEL-28 melanoma
SK-MEL-5 melanoma = test system: SK-MEL-5 melanoma
SK-OV-3 ovarian = test system: SK-OV-3 ovarian
SN12C renal = test system: SN12C renal
SNB-19 CNS = test system: SNB-19 CNS
SNB-75 CNS = test system: SNB-75 CNS
SR leukemia = test system: SR leukemia
SW-620 colon = test system: SW-620 colon
T-47D breast = test system: T-47D breast
TK-10 renal = test system: TK-10 renal
U251 CNS = test system: U251 CNS
UACC-257 melanoma = test system: UACC-257 melanoma
UACC-62 melanoma = test system: UACC-62 melanoma
UO-31 renal = test system: UO-31 renal
MDA-N = test system: MDA-N

CCCCCCCC(=O)SCC/C=C/[C@@H]1CC(=O)NCc2cccc(n2)CN(Cc2ccc(Cl)cc2)CC(=O)N[C@@H](C(C)C)C(=O)O1
GI50 (786-0 renal): 22 µM | TGI (786-0 renal): > 100 µM | GI50 (A498 renal): 8.67 µM | TGI (A498 renal): 22.8 µM | GI50 (A549 NSCLC): 12.1 µM | TGI (A549 NSCLC): 97.7 µM | GI50 (ACHN renal): 6.44 µM | TGI (ACHN renal): 49.8 µM | GI50 (BT-549 breast): 37.1 µM | TGI (BT-549 breast): > 100 µM | GI50 (CAKI-1 renal): 28 µM | TGI (CAKI-1 renal): > 100 µM | GI50 (CCRF-CEM leukemia): 4.56 µM | TGI (CCRF-CEM leukemia): > 100 µM | GI50 (COLO 205 colon): 17.6 µM | TGI (COLO 205 colon): 42.9 µM | GI50 (DU-145 prostate): 10.9 µM | TGI (DU-145 prostate): > 100 µM | GI50 (EKVX NSCLC): 17.8 µM | TGI (EKVX NSCLC): > 100 µM | GI50 (HCC-2998 colon): 13.8 µM | TGI (HCC-2998 colon): 43.7 µM | GI50 (HCT-116 colon): 4.23 µM | TGI (HCT-116 colon): 15.6 µM | GI50 (HCT-15 colon): 20.1 µM | TGI (HCT-15 colon): > 100 µM | GI50 (HL-60(TB) leukemia): 23.1 µM | TGI (HL-60(TB) leukemia): > 100 µM | GI50 (HOP-62 NSCLC): 5.4 µM | TGI (HOP-62 NSCLC): 44.4 µM | GI50 (HOP-92 NSCLC): 8.76 µM | TGI (HOP-92 NSCLC): 41.8 µM | GI50 (HS 578T breast): 6.05 µM | TGI (HS 578T breast): 56.1 µM | GI50 (HT29 colon): 4.3 µM | TGI (HT29 colon): > 100 µM | GI50 (IGROV1 ovarian): 7.02 µM | TGI (IGROV1 ovarian): > 100 µM | GI50 (K-562 leukemia): 11 µM | TGI (K-562 leukemia): > 100 µM | GI50 (KM12 colon): 9.4 µM | TGI (KM12 colon): 65.1 µM | GI50 (LOX IMVI melanoma): 5.33 µM | TGI (LOX IMVI melanoma): 19.6 µM | GI50 (M14 melanoma): 9.1 µM | TGI (M14 melanoma): > 100 µM | GI50 (MALME-3M melanoma): 3.12 µM | TGI (MALME-3M melanoma): > 100 µM | GI50 (MCF7 breast): 12.1 µM | TGI (MCF7 breast): > 100 µM | GI50 (MDA-MB-231 breast): 11.7 µM | TGI (MDA-MB-231 breast): 68.8 µM | GI50 (MDA-MB-435): 6.06 µM | TGI (MDA-MB-435): > 100 µM | GI50 (MOLT-4 leukemia): 3.21 µM | TGI (MOLT-4 leukemia): > 100 µM | GI50 (NCI-H226 lung): 22 µM | TGI (NCI-H226 lung): > 100 µM | GI50 (NCI-H23 lung): 13.7 µM | TGI (NCI-H23 lung): > 100 µM | GI50 (NCI-H460 lung): 5.45 µM | TGI (NCI-H460 lung): > 100 µM | GI50 (NCI-H522 lung): 6.82 µM | TGI (NCI-H522 lung): 54.1 µM | GI50 (NCI/ADR-RES ovarian): 11.4 µM | TGI (NCI/ADR-RES ovarian): > 100 µM | GI50 (OVCAR-3 ovarian): 13.1 µM | TGI (OVCAR-3 ovarian): 49.4 µM | GI50 (OVCAR-4 ovarian): 21.7 µM | TGI (OVCAR-4 ovarian): > 100 µM | GI50 (OVCAR-5 ovarian): 9.98 µM | TGI (OVCAR-5 ovarian): > 100 µM | GI50 (OVCAR-8 ovarian): 9.1 µM | TGI (OVCAR-8 ovarian): > 100 µM | GI50 (PC-3 prostate): 15.9 µM | TGI (PC-3 prostate): > 100 µM | GI50 (RPMI-8226 leukemia): 46.4 µM | TGI (RPMI-8226 leukemia): > 100 µM | GI50 (RXF 393 renal): 5.9 µM | TGI (RXF 393 renal): 44 µM | GI50 (SF-268 CNS): 20 µM | TGI (SF-268 CNS): > 100 µM | GI50 (SF-295 CNS): 4.45 µM | TGI (SF-295 CNS): 20.3 µM | GI50 (SF-539 CNS): 16.3 µM | TGI (SF-539 CNS): > 100 µM | GI50 (SK-MEL-2 melanoma): 13.3 µM | TGI (SK-MEL-2 melanoma): > 100 µM | GI50 (SK-MEL-28 melanoma): 5.04 µM | TGI (SK-MEL-28 melanoma): > 100 µM | GI50 (SK-MEL-5 melanoma): 5.26 µM | TGI (SK-MEL-5 melanoma): 17.6 µM | GI50 (SK-OV-3 ovarian): 6.41 µM | TGI (SK-OV-3 ovarian): 42.7 µM | GI50 (SN12C renal): 22.8 µM | TGI (SN12C renal): > 100 µM | GI50 (SNB-19 CNS): 22.6 µM | TGI (SNB-19 CNS): > 100 µM | GI50 (SNB-75 CNS): 5.74 µM | TGI (SNB-75 CNS): > 100 µM | GI50 (SR leukemia): 3.64 µM | TGI (SR leukemia): > 100 µM | GI50 (SW-620 colon): 18 µM | TGI (SW-620 colon): > 100 µM | GI50 (T-47D breast): 29.3 µM | TGI (T-47D breast): 98.7 µM | GI50 (TK-10 renal): 2.81 µM | TGI (TK-10 renal): 23.6 µM | GI50 (U251 CNS): 12.6 µM | TGI (U251 CNS): 35.8 µM | GI50 (UACC-257 melanoma): 8.99 µM | TGI (UACC-257 melanoma): 70.4 µM | GI50 (UACC-62 melanoma): 5.85 µM | TGI (UACC-62 melanoma): 26.5 µM | GI50 (UO-31 renal): 6.27 µM | TGI (UO-31 renal): 48.9 µM

Cn1c(=O)c2[nH]c(Nc3ccccc3)nc2n(C)c1=O
TGI (786-0 renal): > 10 µM | TGI (A549 NSCLC): > 10 µM | TGI (CAKI-1 renal): > 10 µM | TGI (CCRF-CEM leukemia): > 10 µM | TGI (COLO 205 colon): > 10 µM | TGI (DU-145 prostate): > 10 µM | TGI (EKVX NSCLC): > 10 µM | TGI (HCC-2998 colon): > 10 µM | TGI (HCT-15 colon): > 10 µM | TGI (HL-60(TB) leukemia): > 10 µM | TGI (HOP-62 NSCLC): > 10 µM | TGI (HOP-92 NSCLC): > 10 µM | TGI (HT29 colon): > 10 µM | TGI (IGROV1 ovarian): > 10 µM | TGI (K-562 leukemia): > 10 µM | TGI (KM12 colon): > 10 µM | TGI (LOX IMVI melanoma): > 10 µM | TGI (M14 melanoma): > 10 µM | TGI (MALME-3M melanoma): > 10 µM | TGI (MCF7 breast): > 10 µM | TGI (MDA-MB-231 breast): > 10 µM | TGI (MDA-MB-435): > 10 µM | TGI (MDA-N): > 10 µM | TGI (MOLT-4 leukemia): > 10 µM | TGI (NCI-H23 lung): > 10 µM | TGI (OVCAR-4 ovarian): > 10 µM | TGI (OVCAR-8 ovarian): > 10 µM | TGI (PC-3 prostate): > 10 µM | TGI (RPMI-8226 leukemia): > 10 µM | TGI (RXF 393 renal): > 10 µM | TGI (SF-268 CNS): > 10 µM | TGI (SF-295 CNS): > 10 µM | TGI (SK-MEL-28 melanoma): > 10 µM | TGI (SK-MEL-5 melanoma): > 10 µM | TGI (SK-OV-3 ovarian): > 10 µM | TGI (SN12C renal): > 10 µM | TGI (SNB-75 CNS): > 10 µM | TGI (SR leukemia): > 10 µM | TGI (SW-620 colon): > 10 µM | TGI (T-47D breast): > 10 µM | TGI (TK-10 renal): > 10 µM | TGI (UACC-257 melanoma): > 10 µM | TGI (UACC-62 melanoma): > 10 µM
